Data taken from patent publication US20150065416A1, “NOVEL DRUG COMBINATION” (FAB PHARMA SAS, priority 2013, published 2015).
In brackets after ≈: the same amount, converted by molar mass. Where two headings read alike, the source gives them in different places.

Tests used:
Assay type in all cases: cell-based, Acinetobacter baumannii
[1] = system: A. baumannii isolates; assay: Individual antimicrobial susceptibility testing (MIC, broth microdilution, CLSI); settings: for MIC50 / MIC90: Acinetobacter baumannii
Experimental: In the antimicrobial susceptibility testing 77 isolates of A. baumannii (from 2010) in the following sub-groups were tested: • 22 isolates generally susceptible to antimicrobial agents (“Sus”) • 20 carbapenem-resistant isolates (e.g. “MPM-R”) • 20 aminoglycoside-resistant isolates (e.g. “AMK-R”) • 15 colistin-resistant isolates. (e.g. “COL-R”)
Minimum inhibitory concentration (MIC) endpoints were determined by broth microdilution according to CLSI guidelines (CLSI, M7-A8 & M100-S22, 2012). Panels were prepared at IHMA using cation-adjusted Mueller-Hinton broth. Colonies were taken directly from a second-pass culture plate and prepared to a suspension equivalent of the 0.5 McFarland standard using normal saline.
Testing was carried out as described in the General Procedures to determine minimum inhibitory concentration (MIC) end points for compound (I), amikacin, colistin, gentamicin, meropenem and tobramycin, for 77 A. baumannii isolates. Under the “MIC (μg/ml)” heading, the first column (Range) indicates the MIC end points for the particular number (N) of isolates tested, the second column (50%) provides an estimate of the concentration that inhibits 50% (MIC50) of bacterial isolates tested, and the third column (90%) provides an estimate of the concentration that inhibits 90% of the bacterial isolates tested.

[2] = system: A. baumannii isolates; assay: Checkerboard testing (compound (I)/antibacterial agent interaction, FIC index); settings: Acinetobacter baumannii
Experimental: Checkerboard interaction studies were performed using 5 isolates from each of the sub-groups and time kill studies were performed using 3 isolates from each sub-group.
Checkerboards (20 isolates, 5 per sub-group) were prepared so as to contain multiple concentrations of compound (I) with different additional antibacterial agents (amikacin, gentamicin, colistin, meropenem and tobramycin) as follows:
Serial two-fold dilutions of the antimicrobial agents alone or in combination in wells of 96 well microtiter plates were inoculated with the appropriate inoculum so that each well contained approximately 4-5×10^4 CFU/ml. Plates were incubated at 35° C. for 16-20 hours. Combination concentrations were tested between 0.25×MIC and 2×MIC. Growth and sterility controls were also included in each plate.
Synergy, indifference and antagonism were calculated based upon the use of the fractional inhibitory concentration (FIC) indices as described by Pillai, Moellering & Eliopoulos (2005) whereby:
Synergism=FIC index of ≦0.5 Indifference=FIC index >1 but ≦4 Additivity >0.5 to 1 Antagonism=FIC index of >4
Checkerboard studies were carried out as described in General Procedures using twenty different A. baumannii isolates with 5 per sub-group of: susceptible, amikacin-resistant, colistin-resistant and meropenem-resistant.

[3] = system: A. baumannii CIP 5377, CIP 7034, AYE, SAN, RCH; assay: Antimicrobial susceptibility testing (MIC, broth microdilution, EUCAST; Example 5); settings: Acinetobacter baumannii, read-out: MIC
Excerpt: A. baumannii CIP 5377 (ATCC® 17978): low cephalosporinase producing strain, susceptible to meropenem and amikacin, isolated in an infected patient
A. baumannii CIP 7034: low cephalosporinase producing strain, susceptible to meropenem and amikacin A. baumannii AYE ATCC® BAA1710™: extended spectrum beta-lactamase producing strain susceptible to meropenem and resistant to amikacin
A. baumannii SAN-94040 (SAN): cephalosporinase-overproducing strain, susceptible to meropenem and intermediate to amikacin and resistant to fluoroquinolones, isolated from blood cultures of an intensive care patient with nosocomial pneumonia from North Africa (Algeria).
A. baumannii RCH-69: cephalosporinase producing strain; low susceptibility to imipenem and resistant to amikacin.

[4] = system: A. baumannii isolates; assay: Time kill study (Example 4); settings: for Time to kill 99.9%: alone; for MIC: Acinetobacter baumannii, read-out: MIC
Experimental: A total of 12 isolates were tested (three per sub-group either susceptible, meropenem-resistant, amikacin-resistant or colistin-resistant). Two combinations were tested per isolate. Time-kill kinetics were performed by testing compound (I) and an additional antibacterial agent (amikacin, colistin and meropenem) individually at 1× and 4× the corresponding MIC of each antibacterial agent. […] Samples were taken at 0, 2, 4, 8 and 24 hours in order to determine colony forming units (CFU/mL).
Time-kill studies were carried out as described in General Procedures using combinations of compound (I) with amikacin, meropenem and colistin, respectively.

[5] = Amikacin-resistant isolates, N=20
[6] = Colistin-resistant isolates, N=15
[7] = Meropenem-resistant isolates, N=20

`C[C@@H](O)[C@H]1C(=O)N2C(C(=O)O)=C(S[C@@H]3CN[C@H](C(=O)N(C)C)C3)[C@H](C)[C@H]12` [meropenem] was tested, and the MIC50 ([1]; All isolates, N=77) was 4 µg/mL (≈ 10.4 µM), the MIC90 ([1]; All isolates, N=77) was over 32 µg/mL and the MIC50 [1, 5] was 2 µg/mL (≈ 5.22 µM). It also gave an MIC90 [1, 5] of 16 µg/mL (≈ 41.7 µM), an MIC50 [1, 6] of 32 µg/mL (≈ 83.4 µM) and an MIC90 [1, 6] of over 32 µg/mL. It also gave an MIC50 [1, 7] of over 32 µg/mL, an MIC90 [1, 7] of over 32 µg/mL and an MIC50 ([1]; Susceptible isolates, N=22) of 0.25 µg/mL (≈ 0.652 µM). The MIC90 ([1]; Susceptible isolates, N=22) was 2 µg/mL (≈ 5.22 µM), the “MIC Range” value [1, 5] was 0.5 to 32 µg/mL and the “MIC Range” value ([1]; Susceptible isolates, N=22) was 0.06 to 4 µg/mL. For the same compound, the MIC ([2]; A. baumannii 441142, colistin-resistant, read-out: MIC) was 64 µg/mL, the MIC ([2]; A. baumannii 441160, colistin-resistant, read-out: MIC) was 64 µg/mL and the MIC ([2]; A. baumannii 463996, colistin-resistant) was 0.125 µg/mL. For the same compound, the MIC ([2]; A. baumannii 466936, colistin-resistant) was 128 µg/mL, the MIC ([2]; A. baumannii 517303, colistin-resistant, read-out: MIC) was 1 µg/mL and the MIC ([2]; A. baumannii 618649, meropenem-resistant, read-out: MIC) was 64 µg/mL. For the same compound, the MIC ([2]; A. baumannii 625917, meropenem-resistant, read-out: MIC) was 64 µg/mL, the MIC ([2]; A. baumannii 628760, susceptible, read-out: MIC) was 0.25 µg/mL and the MIC ([2]; A. baumannii 637723, amikacin-resistant, read-out: MIC) was 1 µg/mL. The MIC ([2]; A. baumannii 638115, amikacin-resistant, read-out: MIC) was 2 µg/mL, the MIC ([2]; A. baumannii 650216, meropenem-resistant, read-out: MIC) was 64 µg/mL and the MIC ([2]; A. baumannii 655932, amikacin-resistant, read-out: MIC) was 16 µg/mL. For the same compound, the MIC ([2]; A. baumannii 661954, amikacin-resistant, read-out: MIC) was 1 µg/mL, the MIC ([2]; A. baumannii 667848, meropenem-resistant, read-out: MIC) was 32 µg/mL and the MIC ([2]; A. baumannii 668116, susceptible, read-out: MIC) was 0.5 µg/mL. For the same compound, the MIC ([2]; A. baumannii 668239, amikacin-resistant, read-out: MIC) was 16 µg/mL, the MIC ([2]; A. baumannii 670348, susceptible, read-out: MIC) was 0.5 µg/mL and the MIC ([2]; A. baumannii 671050, meropenem-resistant, read-out: MIC) was 32 µg/mL. The MIC ([2]; A. baumannii 672190, susceptible, read-out: MIC) was 0.5 µg/mL, the MIC ([2]; A. baumannii 674340, susceptible, read-out: MIC) was 0.5 µg/mL and the MIC ([3]; A. baumannii AYE) was 1 µg/mL (≈ 2.61 µM). It also gave an MIC ([3]; A. baumannii CIP 5377) of 0.25 µg/mL (≈ 0.652 µM), an MIC ([3]; A. baumannii CIP 7034) of 1 µg/mL (≈ 2.61 µM) and an MIC ([3]; A. baumannii RCH) of 32 µg/mL (≈ 83.4 µM). For the same compound, the MIC ([3]; A. baumannii SAN) was 1 µg/mL (≈ 2.61 µM), the “Time to kill 99.9%” value ([4]; AMK-R-1, 1xMIC) was 5.2 h and the “Time to kill 99.9%” value ([4]; AMK-R-1, 4xMIC) was 3.2 h. The “Time to kill 99.9%” value ([4]; AMK-R-2, 1xMIC) was over 24 h, the “Time to kill 99.9%” value ([4]; AMK-R-2, 4xMIC) was 6.1 h and the “Time to kill 99.9%” value ([4]; AMK-R-3, 1xMIC) was 3.6 h. The “Time to kill 99.9%” value ([4]; AMK-R-3, 4xMIC) was 1.8 h, the MIC ([4]; isolate AMK-R-1) was 4 µg/mL and the MIC ([4]; isolate AMK-R-2) was 16 µg/mL. For the same compound, the MIC ([4]; isolate AMK-R-3) was 16 µg/mL, the MIC ([4]; isolate COL-R-1) was 64 µg/mL and the MIC ([4]; isolate COL-R-2) was 0.25 µg/mL. For the same compound, the MIC ([4]; isolate COL-R-3) was 16 µg/mL, the “Time to kill 99.9%” value ([4]; COL-R-1, 1xMIC) was 3.6 h and the “Time to kill 99.9%” value ([4]; COL-R-1, 4xMIC) was 3.6 h. The “Time to kill 99.9%” value ([4]; COL-R-2, 1xMIC) was over 24 h, the “Time to kill 99.9%” value ([4]; COL-R-2, 4xMIC) was 5.8 h and the “Time to kill 99.9%” value ([4]; COL-R-3, 1xMIC) was over 24 h. The “Time to kill 99.9%” value ([4]; COL-R-3, 4xMIC) was 3.2 h and the “effect in time-kill studies when tested alone” value ([4]; alone at 1× or 4×MIC) was “generally bactericidal”.
